# Patent US20120148685A1, “METHODS AND COMPOSITIONS FOR TREATING INSULIN RESISTANCE, DIABETES MELLITUS TYPE 2, METABOLIC SYNDROME AND RELATED DISORDERS” (Engergy4Life AG, priority 2009, published 2012)
# Marks after values point to notes of the source that are not given here.
# What was measured:
# [1] = Feed intake, body weight development and feed conversion ratio of Zucker rats fed supplemented diets; type: in vivo; settings: obese (fa/fa) Zucker rats, supplemented diet fed 4 wk, means ± SD (n = 12)
# From the text: Zucker rats are an established model of human early-onset, hyperplastic-hypertrophic obesity and insulin resistance as well as human non-insulin dependent diabetes mellitus.
# (§1) A total of 60 male, 8-10 week old, obese (fa/fa) Zucker rats (Crl:ZUC-Leprfa; Charles River, France) with an initial body weight of 358±24 (mean±SD) g were randomly assigned to five groups of twelve rats each. In addition, 12 male, 8-10 week old, heterozygous lean (fa/+) Zucker rats with an initial body weight of 271±10 g were used as a lean control group. All rats were kept individually in Macrolon cages in a room maintained at 22±1° C. and 50-60% relative humidity with lighting from 06.00 to 18.00 hours. All experimental procedures described followed established guidelines for the care and handling of laboratory animals and were approved by the local Animal Care and Use Committee.
# (§2) The rats were fed semi-purified diets which were composed according to the recommendations of the American Institute of Nutrition (AIN)-93G. Five different diets were used differing in their supplementation. […] Diets were prepared by mixing the dry components and subsequent pelleting with a standard pelleting device (Kahl Laborpressanlage Typ 14-175; Reinbek, Germany). Feed was administered ad libitum, and feed intake was recorded weekly. Experimental diets were fed for 4 weeks. Water was available ad libitum from nipple drinkers during the whole experiment.
# [2] = Organ weights of the rats; type: in vivo; settings: obese (fa/fa) Zucker rats, supplemented diet fed 4 wk, means ± SD (n = 12)
# Experimental: (§3) All rats were kept individually in Macrolon cages in a room maintained at 22±1° C. and 50-60% relative humidity with lighting from 06.00 to 18.00 hours. All experimental procedures described followed established guidelines for the care and handling of laboratory animals and were approved by the local Animal Care and Use Committee.
# (§4) Five different diets were used differing in their supplementation. […] Feed was administered ad libitum, and feed intake was recorded weekly. Experimental diets were fed for 4 weeks. Water was available ad libitum from nipple drinkers during the whole experiment.
# [3] = Plasma and lipoprotein lipid concentrations (triacylglycerol, cholesterol; enzymatic kits); type: in vivo, Zucker rats; settings: obese (fa/fa) Zucker rats, supplemented diet 4 wk, fasted, means ± SD (n = 12)
# Experimental: as §1, §2
# (§5) The rats were decapitated under CO2 anesthesia in the fasted state. Whole blood was collected into EDTA polyethylene tubes (Sarstedt, Nürnbrecht, Germany). Plasma was separated from whole blood by centrifugation (1,100×g; 10 min) at 4° C. Lipoproteins [VLDL, LDL and high-density lipoproteins (HDL)] were separated by step-wise ultracentrifugation (900,000×g, 1.5 h, 4° C.; Mikro-Ultrazentrifuge, Sorvall Products, Bad Homburg, Germany). All samples were stored at −20° C. pending analysis.
# Triacylglycerol and cholesterol concentrations in plasma and lipoproteins were determined using enzymatic reagent kits from Biocon (Vöhl-Marienhagen, Germany).
# [4] = Fasting glucose concentration in plasma; type: in vivo, Zucker rats; settings: obese (fa/fa) Zucker rats, supplemented diet 4 wk, fasted, means ± SD (n = 12)
# Experimental: as §1, §2, §5
# Glucose concentration in plasma was determined by an enzymatic reagent kit from Analyticon Biotechnologies (Lichtenfels, Germany).
# [5] = Non-esterified fatty acids (NEFA) in plasma; type: in vivo, Zucker rats; settings: obese (fa/fa) Zucker rats, supplemented diet 4 wk, fasted, means ± SD (n = 12)
# Experimental: as §1, §2, §5
# NEFA concentrations in plasma were determined using the NEFA kit from Wako Chemicals (Neuss, Germany).
# [6] = tested on: leptin; assay: Leptin in plasma (rat ELISA); type: in vivo, Zucker rats; settings: obese (fa/fa) Zucker rats, supplemented diet 4 wk, fasted, means ± SD (n = 12)
# Experimental: as §1, §2, §5
# (§6) Concentrations of leptin in plasma was determined by rat ELISA kits from BioVendor (Heidelberg, Germany). Concentration of high molecular weight adiponectin was determined by a rat ELISA kit from Shibayagi (Ishihara, Shibukawa, Gunma, Japan).
# [7] = tested on: high molecular weight adiponectin; assay: High molecular weight adiponectin in plasma (rat ELISA); type: in vivo; settings: obese (fa/fa) Zucker rats, supplemented diet 4 wk, fasted, means ± SD (n = 12)
# Experimental: as §1, §2, §5, §6
# [8] = tested on: sterol regulatory element-binding protein (SREBP)-1c; assay: Relative mRNA concentration in liver, lipogenesis: SREBP-1c; type: in vivo, Zucker rats; settings: liver of obese Zucker rats, diet 4 wk, obese control = 1.00, means ± SD (n = 12)
# Experimental: as §3, §4
# [9] = tested on: fatty acid synthase (FAS); assay: Relative mRNA concentration in liver, lipogenesis: FAS; type: in vivo, Zucker rats; settings: liver of obese Zucker rats, diet 4 wk, obese control = 1.00, means ± SD (n = 12)
# Experimental: as §3, §4
# [10] = tested on: stearoyl-CoA desaturase (SCD); assay: Relative mRNA concentration in liver, lipogenesis: SCD; type: in vivo; settings: liver of obese Zucker rats, diet 4 wk, obese control = 1.00, means ± SD (n = 12)
# Experimental: as §3, §4
# [11] = tested on: fatty acid binding protein (FABP); assay: Relative mRNA concentration in liver, fatty acid uptake: FABP; type: in vivo, Zucker rats; settings: liver of obese Zucker rats, diet 4 wk, obese control = 1.00, means ± SD (n = 12)
# Experimental: as §3, §4
# [12] = tested on: fatty acid transport protein (FATP); assay: Relative mRNA concentration in liver, fatty acid uptake: FATP; type: in vivo; settings: liver of obese Zucker rats, diet 4 wk, obese control = 1.00, means ± SD (n = 12)
# Experimental: as §3, §4
# [13] = tested on: scavenger receptor CD36; assay: Relative mRNA concentration in liver, fatty acid uptake: CD36; type: in vivo; settings: liver of obese Zucker rats, diet 4 wk, obese control = 1.00, means ± SD (n = 12)
# Experimental: as §3, §4
# [14] = tested on: lipoprotein lipase (LPL); assay: Relative mRNA concentration in liver, fatty acid uptake: LPL; type: in vivo; settings: liver of obese Zucker rats, diet 4 wk, obese control = 1.00, means ± SD (n = 12)
# Experimental: as §3, §4
# [15] = tested on: acyl-CoA oxidase (ACO); assay: Relative mRNA concentration in liver, fatty acid oxidation: ACO; type: in vivo; settings: liver of obese Zucker rats, diet 4 wk, obese control = 1.00, means ± SD (n = 12)
# Experimental: as §3, §4
# [16] = tested on: liver-type carnitine-palmitoyltransferase (L-CPT) I; assay: Relative mRNA concentration in liver, fatty acid oxidation: L-CPT I; type: in vivo; settings: liver of obese Zucker rats, diet 4 wk, obese control = 1.00, means ± SD (n = 12)
# Experimental: as §3, §4
smiles,measurement,setting,value
"CC/C=C\C/C=C\C/C=C\C/C=C\C/C=C\C/C=C\CCC(=O)O [DHA, docosahexaenoic acid]",Daily body weight gain,[1],5.14 ± 0.60 ^a g
same,Feed conversion ratio,[1],5.01 ± 0.28 ^c g/g
same,Feed intake,[1],25.7 ± 2.9 ^ab g/d
same,Final body weight,[1],505 ± 34 ^a g
same,Total body weight gain,[1],146 ± 17 ^a g
same,Absolute organ weights: Heart,[2],1.36 ± 0.13 g
same,Absolute organ weights: Kidney,[2],2.59 ± 0.38 g
same,Absolute organ weights: Liver,[2],24.7 ± 3.7 ^a g
same,Relative organ weights: Heart,[2],2.70 ± 0.21 ^b mg/g body weight
same,Relative organ weights: Kidney,[2],5.16 ± 0.91 mg/g body weight
same,Relative organ weights: Liver,[2],48.6 ± 4.9 ^a mg/g body weight
same,"Cholesterol, HDL",[3],4.51 ± 0.45 ^a mmol/L
same,"Cholesterol, Plasma",[3],8.30 ± 1.00 ^a mmol/L
same,"Cholesterol, VLDL + LDL",[3],3.62 ± 0.53 ^a mmol/L
same,"Triacylglycerols, Plasma",[3],4.73 ± 0.98 ^bc mmol/L
same,"Triacylglycerols, VLDL + LDL",[3],2.81 ± 0.52 ^b mmol/L
same,Glucose in plasma,[4],7.99 ± 0.77 ^ab mmol/L
same,NEFA in plasma,[5],2.42 ± 0.53 ^b mmol/L
same,Leptin in plasma,[6],7.27 ± 1.09 ^a ng/mL
same,Adiponectin in plasma,[7],120 ± 22 ng/mL
same,"Relative mRNA concentration, SREBP-1c",[8],0.81 ± 0.32 ^ab
same,"Relative mRNA concentration, FAS",[9],0.71 ± 0.55 ^ab
same,"Relative mRNA concentration, SCD",[10],1.01 ± 0.45 ^a
same,"Relative mRNA concentration, FABP",[11],0.99 ± 0.19 ^a
same,"Relative mRNA concentration, FATP",[12],1.07 ± 0.90
same,"Relative mRNA concentration, CD36",[13],0.91 ± 0.38 ^a
same,"Relative mRNA concentration, LPL",[14],1.26 ± 0.36
same,"Relative mRNA concentration, ACO",[15],1.27 ± 0.35
same,"Relative mRNA concentration, L-CPT I",[16],1.31 ± 0.69
